Laboratory results from BindingDB's records for patent US20250127800 (Signet Therapeutics, 2025).

Biological target: Focal adhesion kinase 1 (Homo sapiens, UniProt Q05397)
Assay: In Vitro Enzymatic Inhibitory Activity Assay

Chain of Focal adhesion kinase 1 (Q05397 whole entry): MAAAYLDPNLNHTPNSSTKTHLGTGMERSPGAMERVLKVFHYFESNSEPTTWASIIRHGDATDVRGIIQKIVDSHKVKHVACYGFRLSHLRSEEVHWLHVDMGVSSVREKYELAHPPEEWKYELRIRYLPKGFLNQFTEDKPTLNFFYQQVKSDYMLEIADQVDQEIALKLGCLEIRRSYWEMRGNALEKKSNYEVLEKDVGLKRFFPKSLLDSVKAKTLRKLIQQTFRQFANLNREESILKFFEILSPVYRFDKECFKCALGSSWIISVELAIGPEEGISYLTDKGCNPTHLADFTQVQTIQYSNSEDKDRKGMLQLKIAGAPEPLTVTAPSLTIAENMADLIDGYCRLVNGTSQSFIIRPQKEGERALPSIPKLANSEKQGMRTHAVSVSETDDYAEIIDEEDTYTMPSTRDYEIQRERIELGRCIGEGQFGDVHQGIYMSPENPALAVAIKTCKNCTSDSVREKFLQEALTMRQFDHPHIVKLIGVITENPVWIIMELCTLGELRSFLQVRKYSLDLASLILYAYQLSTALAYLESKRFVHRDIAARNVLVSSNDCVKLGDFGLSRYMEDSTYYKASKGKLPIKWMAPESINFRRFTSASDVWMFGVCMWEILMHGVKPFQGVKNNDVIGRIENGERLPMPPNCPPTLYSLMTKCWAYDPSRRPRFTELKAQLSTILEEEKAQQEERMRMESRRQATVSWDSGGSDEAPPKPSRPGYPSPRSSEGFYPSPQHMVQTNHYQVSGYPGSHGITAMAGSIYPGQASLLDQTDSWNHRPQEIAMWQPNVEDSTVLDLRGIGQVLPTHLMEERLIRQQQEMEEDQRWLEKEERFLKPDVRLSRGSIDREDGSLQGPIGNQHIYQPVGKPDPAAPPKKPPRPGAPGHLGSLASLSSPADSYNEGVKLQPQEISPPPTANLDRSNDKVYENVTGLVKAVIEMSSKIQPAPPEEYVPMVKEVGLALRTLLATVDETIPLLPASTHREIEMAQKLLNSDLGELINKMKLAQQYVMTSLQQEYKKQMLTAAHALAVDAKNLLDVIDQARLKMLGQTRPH

Row | IC50 | SMILES
1 | 3.41 nM | C=CC(=O)N1CCCC(c2cccc(NCc3ccc(Nc4ncc(C(F)(F)F)c(Nc5ccccc5C(=O)NC)n4)c(OC)c3)c2)C1 (stereo unspecified) [US20250127800, Example 12]
2 | 7.84 nM | C=CC(=O)N1CCCC(c2cccc(NCc3ccc(Nc4ncc(Cl)c(Nc5ccccc5C(=O)NC)n4)cc3)c2)C1 (stereo unspecified) [US20250127800, Example 15]
3 | 2.93 nM | C=C(C)C(=O)N1CCCC(c2cccc(NCc3ccc(Nc4ncc(C(F)(F)F)c(Nc5ccccc5C(=O)NC)n4)cc3)c2)C1 (stereo unspecified) [US20250127800, Example 24]

Further lines, the molecule ahead of its results:

Row | SMILES | IC50
4 | C=CC(=O)N1CCC(NC(=O)c2ccc(Nc3ncc(C(F)(F)F)c(NCc4nccnc4N(C)S(C)(=O)=O)n3)c(OC)c2)C1 (stereo unspecified) [US20250127800, Example 2] | 1.18 nM
5 | C=CC(=O)N1CCCC(NC(=O)c2ccc(Nc3ncc(C(F)(F)F)c(NCc4nccnc4N(C)S(C)(=O)=O)n3)c(OC)c2)C1 (stereo unspecified) [US20250127800, Example 3] | 1.59 nM
6 | C=CC(=O)NC1CCC(CNC(=O)c2ccc(Nc3ncc(C(F)(F)F)c(NCc4nccnc4N(C)S(C)(=O)=O)n3)c(OC)c2)CC1 (stereo unspecified) [US20250127800, Example 5] | 0.9 nM
